Earlier results as cited in US20030199492A1, “Combination therapy” (priority 1997, published 2003).

Key:
[1] = tested on: calcium channel
[2] = tested on: smooth muscle cell migration

CCOC(=O)C1=C(COCCN)NC(C)=C(C(=O)OC)C1c1ccccc1Cl (single isomer, unassigned) [R(+) isomer, amlodipine]
calcium channel blocking activity [1]: little or no calcium channel blocking activity | inhibition of smooth muscle cell migration [2]: potent inhibitor of smooth muscle cell migration
